Columns and labels:
[1] = tested on: HT-29 human colon cancer cell line; assay: Cytotoxicity assay against HT-29 human colon cancer cell line; format: cell-based; conditions: HT-29, read-out: cytotoxicity ED50
HT-29 cells = assay: In vivo hollow fiber assay, HT-29 cells; design: species or system human; conditions: cells implanted at i.p. site; doses 2.5, 5, 10, 20 mg/kg
[2] = tested on: LNCaP (hormone-dependent human prostate cancer) cells; assay: In vivo hollow fiber assay, LNCaP cells; conditions: cells implanted at i.p. site; doses 2.5, 5, 10, 20 mg/kg

| Compound | IC50 [1] | activity in hollow fiber assay (HT-29) (HT-29 cells) | activity in hollow fiber assay (LNCaP) [2] |
| --- | --- | --- | --- |
| COc1cc2oc3cc(O)c(OC)c(CC=C(C)C)c3c(=O)c2c2c1CC(O)C(C)(C)O2 (centres unmarked) [Compound 1, 11-hydroxy-3-O-methyl-1-isomangostin] | > 10 µM | – | – |
| COc1c(O)cc2oc3cc(O)c4c(c3c(=O)c2c1CC=C(C)C)OC(C)(C)C(O)C4 (centres unmarked) [Compound 2, 11-hydroxy-1-isomangostin] | > 10 µM | – | – |
| COc1c(O)cc2oc3cc(O)c(CC=C(C)C)c(O)c3c(=O)c2c1CC=C(C)C [Compound 5, α-mangostin] | – | inactive | inactive |
| COc1c(O)cc2oc3cc4c(c(O)c3c(=O)c2c1CC=C(C)C)[C@@H](c1c(O)c(CC=C(C)C)c(O)c2c(=O)c3c(CC=C(C)C)c(OC)c(O)cc3oc12)[C@H](C(C)(C)O)O4 [Compound 11, cratoxyxanthone] | > 10 µM | – | – |
